Data as given in patent US20120220562A1, “Anti-Viral Compounds” (ABBOTT LABAORATORIES, priority 2011, published 2012).
pEC50: −log10 of the molar value.

Tested on: HCV 1b-Con1 replicon
Test: HCV 1b-Con1 replicon assay in the presence of 5% FBS
Format: cell-based
Conditions: Hepatitis C virus

Compound	pEC50
COC(=O)N[C@H](C(=O)N1CCC[C@H]1c1nc2cc([C@H]3CC[C@H](c4cc5nc([C@@H]6CCCN6C(=O)[C@@H](NC(=O)OC)C(C)C)[nH]c5cc4F)N3c3cc(F)c(N4CCC(C(C)(C)C)CC4)c(F)c3)c(F)cc2[nH]1)C(C)C [Example 4.27, methyl {(2S)-1-[(2S)-2-{5-[(2R,5R)-1-[4-(4-tert-butylpiperidin-1-yl)-3,5-difluorophenyl]-5-{6-fluoro-2-[(2S)-1-{(2S)-2-[(methoxycarbonyl)amino]-3-methylbutanoyl}pyrrolidin-2-yl]-1H-benzimidazol-5-yl}pyrrolidin-2-yl]-6-fluoro-1H-benzimidazol-2-yl}pyrrolidin-1-yl]-3-methyl-1-oxobutan-2-yl}carbamate]	> 10.00
COC(=O)N[C@H](C(=O)N1CCC[C@H]1c1nc2cc([C@H]3CC[C@H](c4ccc5[nH]c([C@@H]6CCCN6C(=O)[C@@H](NC(=O)OC)C(C)C)nc5c4)N3c3cc(F)c(N4CC(C)(C)C4)c(F)c3)ccc2[nH]1)C(C)C [Example 4.24, methyl {(2S)-1-[(2S)-2-{5-[(R2R,5R)-1-[4-(3,3-dimethylazetidin-1-yl)-3,5-difluorophenyl]-5-{2-[(2S)-1-{(2S)-2-[(methoxycarbonyl)amino]-3-methylbutanoyl}pyrrolidin-2-yl]-1H-benzimidazol-5-yl}pyrrolidin-2-yl]-1H-benzimidazol-2-yl}pyrrolidin-1-yl]-3-methyl-1-oxobutan-2-yl}carbamate]	> 10.00
COC(=O)N[C@H](C(=O)N1CCC[C@H]1c1nc2cc([C@H]3CC[C@H](c4cc5nc([C@@H]6CCCN6C(=O)[C@@H](NC(=O)OC)[C@@H](C)OC)[nH]c5cc4F)N3c3cc(F)c(N4CCCCC4)c(F)c3)c(F)cc2[nH]1)[C@@H](C)OC [Example 3.36, methyl {(2S,3R)-1-[(2S)-2-{5-[(2R,5R)-1-[3,5-difluoro-4-(piperidin-1-yl)phenyl]-5-(6-fluoro-2-{(2S)-1-[N-(methoxycarbonyl)-O-methyl-L-threonyl]pyrrolidin-2-yl}-1H-benzimidazol-5-yl)pyrrolidin-2-yl]-6-fluoro-1H-benzimidazol-2-yl}pyrrolidin-1-yl]-3-methoxy-1-oxobutan-2-yl}carbamate]	> 10.00
COC(=O)N[C@H](C(=O)N1CCC[C@H]1c1nc2cc([C@H]3CC[C@H](c4cc5nc([C@@H]6CCCN6C(=O)[C@@H](NC(=O)OC)[C@@H](C)OC)[nH]c5cc4F)N3c3cc(F)c(N4CCC(c5ccccc5)CC4)c(F)c3)c(F)cc2[nH]1)[C@@H](C)OC [Example 4.38, methyl {(2S,3R)-1-[(2S)-2-{5-[(2R,5R)-1-[3,5-difluoro-4-(4-phenylpiperidin-1-yl)phenyl]-5-(6-fluoro-2-{(2S)-1-[N-(methoxycarbonyl)-O-methyl-L-threonyl]pyrrolidin-2-yl}-1H-benzimidazol-5-yl)pyrrolidin-2-yl]-6-fluoro-1H-benzimidazol-2-yl}pyrrolidin-1-yl]-3-methoxy-1-oxobutan-2-yl}carbamate]	> 10.00
COC(=O)N[C@H](C(=O)N1CCC[C@H]1c1nc2cc([C@H]3CC[C@H](c4ccc5[nH]c([C@@H]6CCCN6C(=O)[C@@H](NC(=O)OC)[C@@H](C)OC)nc5c4)N3c3cc(F)c(N4CCC(c5ccccc5)CC4)c(F)c3)ccc2[nH]1)[C@@H](C)OC [Example 5.3, methyl {(2S,3R)-1-[(2S)-2-{5-[(2R,5R)-1-[3,5-difluoro-4-(4-phenylpiperidin-1-yl)phenyl]-5-(2-{(2S)-1-[N-(methoxycarbonyl)-O-methyl-L-threonyl]pyrrolidin-2-yl}-1H-benzimidazol-5-yl)pyrrolidin-2-yl]-1H-benzimidazol-2-yl}pyrrolidin-1-yl]-3-methoxy-1-oxobutan-2-yl}carbamate]	> 10.00
COC(=O)N[C@H](C(=O)N1CCC[C@H]1c1nc2cc([C@H]3CC[C@H](c4ccc5[nH]c([C@@H]6CCCN6C(=O)[C@@H](NC(=O)OC)C(C)C)nc5c4)N3c3cc(F)c(N4C[C@H]5CCCC[C@H]5C4)c(F)c3)ccc2[nH]1)C(C)C [Example 4.3, methyl {(2S)-1-[(2S)-2-{5-[(2R,5R)-1-{3,5-difluoro-4-[(3aR,7aS)-octahydro-2H-isoindol-2-yl]phenyl}-5-{2-[(2S)-1-{(2S)-2-[(methoxycarbonyl)amino]-3-methylbutanoyl}pyrrolidin-2-yl]-1H-benzimidazol-5-yl}pyrrolidin-2-yl]-1H-benzimidazol-2-yl}pyrrolidin-1-yl]-3-methyl-1-oxobutan-2-yl}carbamate]	> 10.00
COC(=O)N[C@H](C(=O)N1CCC[C@H]1c1nc2cc([C@H]3CC[C@H](c4ccc5[nH]c([C@@H]6CCCN6C(=O)[C@@H](NC(=O)OC)C6CCCC6)nc5c4)N3c3cc(F)c(N4CCC(c5ccccc5)CC4)c(F)c3)ccc2[nH]1)C1CCCC1 [Example 3.24, dimethyl ({(2R,5R)-1-[3,5-difluoro-4-(4-phenylpiperidin-1-yl)phenyl]pyrrolidine-2,5-diyl}bis{1H-benzimidazole-5,2-diyl(2S)pyrrolidine-2,1-diyl[(1S)-1-cyclopentyl-2-oxoethane-2,1-diyl]})biscarbamate]	> 10.00
COC(=O)N[C@H](C(=O)N1CCCC1c1nc2cc([C@H]3CC[C@H](c4ccc5[nH]c([C@@H]6CCCN6)nc5c4)N3c3ccc(C(C)(C)C)cc3)ccc2[nH]1)C(C)C (stereo partly drawn) [Example 4.20, methyl [(2S)-1-(2-{5-[(2R,5R)-1-(4-tert-butylphenyl)-5-{2-[(2S)-pyrrolidin-2-yl]-1H-benzimidazol-5-yl}pyrrolidin-2-yl]-1H-benzimidazol-2-yl}pyrrolidin-1-yl)-3-methyl-1-oxobutan-2-yl]carbamate]	> 10.00
COC(=O)N[C@H](C(=O)N1CCC[C@H]1c1nc2cc([C@H]3CC[C@H](c4ccc5[nH]c([C@@H]6CCCN6C(=O)[C@@H](NC(=O)OC)C(C)C)nc5c4)N3c3cc(F)c(N4CCC(C(C)=O)(c5ccccc5)CC4)c(F)c3)ccc2[nH]1)C(C)C [Example 4.17, methyl {(2S)-1-[(2S)-2-{5-[(2R,5R)-1-[4-(4-acetyl-4-phenylpiperidin-1-yl)-3,5-difluorophenyl]-5-{2-[(2S)-1-{(2S)-2-[(methoxycarbonyl)amino]-3-methylbutanoyl}pyrrolidin-2-yl]-1H-benzimidazol-5-yl}pyrrolidin-2-yl]-1H-benzimidazol-2-yl}pyrrolidin-1-yl]-3-methyl-1-oxobutan-2-yl}carbamate]	> 10.00
COC(=O)N[C@H](C(=O)N1CCC[C@H]1c1nc2ccc([C@H]3CC[C@H](c4ccc5nc([C@@H]6CCCN6C(=O)[C@@H](NC(=O)OC)C(C)C)[nH]c5c4)N3c3cc(F)c(N4CCC(Cc5ccccc5)CC4)c(F)c3)cc2[nH]1)C(C)C [Example 4.47, methyl {(2S)-1-[(2S)-2-{6-[(2R,5R)-1-[4-(4-benzylpiperidin-1-yl)-3,5-difluorophenyl]-5-{2-[(2S)-1-{(2S)-2-[(methoxycarbonyl)amino]-3-methylbutanoyl}pyrrolidin-2-yl]-1H-benzimidazol-6-yl}pyrrolidin-2-yl]-1H-benzimidazol-2-yl}pyrrolidin-1-yl]-3-methyl-1-oxobutan-2-yl}carbamate]	> 10.00
COC(=O)N[C@H](C(=O)N1CCC[C@H]1c1nc2cc([C@H]3CC[C@H](c4cc5nc([C@@H]6CCCN6C(=O)[C@@H](NC(=O)OC)C6CCCC6)[nH]c5cc4F)N3c3cc(F)c(N4CCCCC4)c(F)c3)c(F)cc2[nH]1)C1CCCC1 [Example 3.39, dimethyl ({(2R,5R)-1-[3,5-difluoro-4-(piperidin-1-yl)phenyl]pyrrolidine-2,5-diyl}bis{(6-fluoro-1H-benzimidazole-5,2-diyl)(2S)pyrrolidine-2,1-diyl[(1S)-1-cyclopentyl-2-oxoethane-2,1-diyl]})biscarbamate]	> 10.00
COC(=O)N[C@H](C(=O)N1CCC[C@H]1c1nc2ccc([C@H]3CC[C@H](c4ccc5nc([C@@H]6CCCN6C(=O)[C@@H](NC(=O)OC)C(C)C)[nH]c5c4)N3c3cc(F)c(N4CCC(F)(c5ccccc5)CC4)c(F)c3)cc2[nH]1)C(C)C [Example 4.35, methyl {(2S)-1-[(2S)-2-{6-[(2R,5R)-1-[3,5-difluoro-4-(4-fluoro-4-phenylpiperidin-1-yl)phenyl]-5-{2-[(2S)-1-{(2S)-2-[(methoxycarbonyl)amino]-3-methylbutanoyl}pyrrolidin-2-yl]-1H-benzimidazol-6-yl}pyrrolidin-2-yl]-1H-benzimidazol-2-yl}pyrrolidin-1-yl]-3-methyl-1-oxobutan-2-yl}carbamate]	> 10.00
COC(=O)N[C@H](C(=O)N1CCC[C@H]1c1nc2cc([C@H]3CC[C@H](c4cc5nc([C@@H]6CCCN6C(=O)[C@@H](NC(=O)OC)C(C)C)[nH]c5cc4F)N3c3cc(F)c(N4CCC(c5ccccc5)CC4)c(F)c3)c(F)cc2[nH]1)C(C)C [Example 6.11, methyl {(2S)-1-[(2S)-2-{5-[(2R,5R)-1-[3,5-difluoro-4-(4-phenylpiperidin-1-yl)phenyl]-5-{6-fluoro-2-[(2S)-1-{(2S)-2-[(methoxycarbonyl)amino]-3-methylbutanoyl}pyrrolidin-2-yl]-1H-benzimidazol-5-yl}pyrrolidin-2-yl]-6-fluoro-1H-benzimidazol-2-yl}pyrrolidin-1-yl]-3-methyl-1-oxobutan-2-yl}carbamate]	> 10.00
COC(=O)N[C@H](C(=O)N1CCC[C@H]1c1nc2cc([C@H]3CC[C@H](c4ccc5[nH]c([C@@H]6CCCN6C(=O)[C@@H](NC(=O)OC)C(C)C)nc5c4)N3c3cc(F)c(N4CC=C(c5ccccc5)CC4)c(F)c3)ccc2[nH]1)C(C)C [Example 5.15, methyl {(2S)-1-[(2S)-2-{5-[(2R,5R)-1-[3,5-difluoro-4-(4-phenyl-3,6-dihydropyridin-1(2H)-yl)phenyl]-5-{2-[(2S)-1-{(2S)-2-[(methoxycarbonyl)amino]-3-methylbutanoyl}pyrrolidin-2-yl]-1H-benzimidazol-5-yl}pyrrolidin-2-yl]-1H-benzimidazol-2-yl}pyrrolidin-1-yl]-3-methyl-1-oxobutan-2-yl}carbamate]	> 10.00
